Source: publication PMC4851402, “Validation of N-myristoyltransferase as Potential Chemotherapeutic Target in Mammal-Dwelling Stages of Trypanosoma cruzi” (PLoS Neglected Tropical Diseases, 2016)
Entries after “also recorded” stand apart in the source; their conditions may differ. Read-outs that look alike come from different tables or passages of the source.

Tests used:
U2OS cells = assay: Cytotoxicity (viability) assay on non-infected U2OS cells, high-content imaging; format: cell-based, human; settings: for EC50: Homo sapiens, read-out: U2OS cells EC50; for Toxicity on U2OS cells: after 48 h of treatment
Protocol: (§1) DMSO control wells contained 30 μL 6% DMSO, whereas wells for the negative control contained 1% hydrogen peroxide in DMEM. U2OS cells were resuspended in DMEM, 10% HI-FBS, to give a cell density of 2 x 10^5 cells/mL, while ICA forms were resuspended in DMEM, 10% HI-FBS, to a final density of 1 x 10^7 per well. Epi forms were resuspended in LIT medium to a density of 1 x 10^6 parasites per well. Hundred and fifty microliters of the suspension containing either host cells or parasites were added per well. Following 47- and 23-h incubation at 37°C for mammalian cells and ICA, respectively, a mixture of propidium iodide (Invitrogen) and Hoechst dye (Invitrogen) diluted in culture media (1 μg/mL each) was added to the plates, which were then further incubated for 1 h at 37°C. […] In the case of Epi, after 68-h incubation at 28°C, 18 μL Alamar Blue (AbD Serotec, Raleigh, NC) were added per well. Following an additional 4-h incubation, the plate was read in a microplate fluorometer (Thermo Scientific) at excitation 560 nm, emission 590 nm. Three independent experiments were performed in triplicate wells.
(§2) EC50 were determined from three independent experiments.

[1] = tested on: T. cruzi intracellular amastigote proliferation; assay: In vitro T. cruzi intracellular proliferation assay in infected U2OS cells, high-content imaging; format: cell-based, Trypanosoma cruzi (Y strain); settings: read-out: T. cruzi proliferation assay EC50
Protocol: DMSO control wells contained 30 μL 6% DMSO. Human […] (U2OS cells) were diluted in DMEM, 10% heat inactivated-fetal bovine serum (HI-FBS) to give a cell density of 2 x 10^5 cells/mL. T. cruzi trypomastigotes were resuspended in DMEM, 10% HI-FBS to a final density of 1.2 x 10^7. Cells and parasites were mixed a ratio of 4 volumes of cells plus 1 volume of parasites. 150 μL of the mixture were dispensed per well. Plates were incubated for 48 h. After the incubation period, media was removed from the wells and 100 μL 4% paraformaldehyde (PFA) were added. After 15 min of incubation at room temperature, PFA was removed and cells and parasites were stained with Draq5 (BioStatus, Leicestershire, UK) at a concentration of 5 μM diluted in PBS. The plates were then read in a bioimager system as described below. Three independent experiments were performed in triplicate wells.
Filter sets appropriate for the excitation and emission spectra of Draq5 were utilized. Images from four fields (2 x 2 montage) were acquired per well with a 20x objective. To perform the host cell segmentation and counting of parasites, the BD AttoVision v1.6.2 Sub Object analysis was used. Draq5 creates a background, staining the host cell and parasite nucleus, but defining the cytoplasm as well, determining this way the amount of parasites within each mammalian cell. The host cell nucleus was excluded by size difference. Raw data was imported into the BD Image Data Explorer (BD Biosciences) to determine the percentage of infected cells containing at least 1, at least 3 or at least 5 intracellular parasites.
as §2

[2] = tested on: Purified ICAs of T. cruzi; assay: microbe, parasite or virus in culture; format: cell-based, Trypanosoma cruzi (Y strain); settings: for EC50: read-out: Purified ICAs EC50
Protocol: Intracellular amastigote (ICA) forms were purified as described. Briefly, 5 x 10^6 LLC-MK2 cells were seeded in a 150-cm^2 tissue culture flask (NUNC, Thermo Scientific) and cells were grown for 3–4 days to reach confluency of ~2 x 10^7 cells per flask. The medium was then replaced with fresh complete medium and host cells were infected with 1 x 10^8 TCT (multiplicity of infection (MOI) ≈ 5). After 5 days, the infected monolayers were gently detached by scraping and resuspended in 5 mL phosphate-buffered saline (PBS). The suspension containing the infected cells was next transferred to an M-tube (Miltenyi Biotec Inc., San Diego, CA). This tube bears a special stator and rotor that allows for tissue homogenization. In addition, it has a pre-inserted mesh that retains larger particles, removing them from the homogenized sample. The tube was then placed in the gentleMACS Dissociator (Miltenyi Biotec) for the automated disruption of host cells. The homogenized sample containing the parasites was then passed through a column containing anion exchange preswollen microgranular diethylaminoethyl cellulose (DE52, Whatman, Sigma-Aldrich).
as §1, §2

[3] = tested on: T. cruzi epimastigotes (Epi); assay: Cytotoxicity assay on epimastigotes (Alamar Blue); format: cell-based, Trypanosoma cruzi (Y strain); settings: after 72 h; for EC50: Trypanosoma cruzi, read-out: Epi forms EC50
Protocol: DDD compounds 1–8 and the reference drug BZ were prepared 6-fold-concentrated in 6% DMSO, to give a final concentration of 1x compound in 1% DMSO. […] DMSO control wells contained 30 μL 6% DMSO, whereas wells for the negative control contained 1% hydrogen peroxide in DMEM. U2OS cells were resuspended in DMEM, 10% HI-FBS, to give a cell density of 2 x 10^5 cells/mL, while ICA forms were resuspended in DMEM, 10% HI-FBS, to a final density of 1 x 10^7 per well. Epi forms were resuspended in LIT medium to a density of 1 x 10^6 parasites per well. Hundred and fifty microliters of the suspension containing either host cells or parasites were added per well. Following 47- and 23-h incubation at 37°C for mammalian cells and ICA, respectively, a mixture of propidium iodide (Invitrogen) and Hoechst dye (Invitrogen) diluted in culture media (1 μg/mL each) was added to the plates, which were then further incubated for 1 h at 37°C. Finally, plates were read in the BD Pathway 855 bioimager system. In the case of Epi, after 68-h incubation at 28°C, 18 μL Alamar Blue (AbD Serotec, Raleigh, NC) were added per well. Following an additional 4-h incubation, the plate was read in a microplate fluorometer (Thermo Scientific) at excitation 560 nm, emission 590 nm. Three independent experiments were performed in triplicate wells. […] EC50 were determined from three independent experiments.

TcNMT [4] = assay: Metabolic labeling with myristic acid, azide and in-gel western blotting (on-target); format: cell-based, Trypanosoma cruzi; settings: 10 μM, 12 h, Epi, ICA and TCT
Protocol: Parasites were incubated with or without 10 μM of the inhibitor 1, 5, or 8 in 1 mL 2% delipidated BSA-DMEM at 37°C for ICA and TCT and at 28°C for Epi. After 6 h, 100 μM myristic acid, azide (from a 50-mM stock in DMSO) were added to the samples, and the same volume of DMSO was added to the negative control. Cells were incubated for another 6 h, for a 12-h treatment with the inhibitors. Next, the parasites were washed three times with PBS and lysed in 1% SDS, Tris-HCl, pH 8.0. “Click” reaction was performed between the myristic acid azide and Biotin Alkyne (Invitrogen) according to the manufacturer instructions using the Click-iT Protein Reaction Buffer Kit (Invitrogen). Duplicate aliquots of lysates were ran in 10% SDS-PAGE followed by fixing (5% acetic acid, 50% isopropanol) for 15 min. Gels were then analyzed by in-gel western blotting using IRDye streptavidin (LI-COR Biosciences, Lincoln, NE) 1:7500 in 5% BSA, 0.05% SDS, 0.2% Tween in PBS, for 1 h at room temperature. They were subsequently treated or not with 0.2 M NaOH in methanol for 1 h at room temperature. Gels were scanned in an ODYSSEY quantitative imagining system (LI-COR Biosciences). They were next stained with Coomassie blue and scanned again to determine total protein levels.

[5] = tested on: Epi, ICA and TCT forms of T. cruzi; assay: [35S]-Methionine labeling (protein translation); format: cell-based, Trypanosoma cruzi; settings: 10 μM, 12 h
Protocol: Parasites were incubated with or without 10 μM of the inhibitors as described above. After 10 h, cells were starved in methionine deficient media for 1 h. Next, 20 μCi.mL^-1 [^35S]-methionine (Perkin Elmer) were added to the samples for 1 h incubation, for a 12-h treatment with the inhibitors. Next, the parasites were washed three times with PBS and lysed in 1% SDS, Tris-HCl, pH 8.0. Samples were ran in 4–12% gels (Expedeon, San Diego, CA) and transferred to polyvinylidene fluoride (PVDF) membranes (Sigma-Aldrich). Membranes were dried and exposed to Hyperfilm ECL (Amersham, GE Healthcare Lifesciences, Piscataway, NJ). To determine total protein levels, membranes were stained with Ponceau S after exposure.

TcNMT [6] = assay: Western blotting of TcNMT expression in treated parasites; format: cell-based, Trypanosoma cruzi; settings: 10 μM, 12 h
Protocol: Parasites (1 x 10^7 cells) were incubated with or without 10 μM of the inhibitor (compound 1, 5, or 8) in 1 mL 10% HI-FBS, DMEM at 37°C for ICA and TCT, and at 28°C for Epi for 12 h. Next, parasites were washed three times with PBS and lysed in 1% SDS, Tris-HCl, pH 8.0. Samples were run in 10% SDS-PAGE followed by western blot probed with anti-TcNMT at dilution 1:1000 in 5% milk-PBS overnight. This was followed by incubation with anti-rabbit IgG-HRP conjugated. The membrane was next stripped with boiling stripping buffer (3% SDS, 0.3% β-mercaptoethanol) for 10 min, followed by 4 washes with 0.1% PBS-T. It was then blot again with anti-BiP at dilution 1:500 in 5% milk-PBS overnight, at 4°C, followed by anti-rabbit IgG HRP-conjugated.

T. brucei = tested on: T. brucei; parameters: method as in PMID 20360736; settings: T. brucei bloodstream forms; cited from earlier work
[7] = non-infected U2OS cells, 48 h at 37°C
[8] = Trypanosoma cruzi, U2OS, 48 h, infected U2OS cells, 48 h at 37°C
[9] = Trypanosoma cruzi, 24 h, purified ICAs, 24 h at 37°C

For `Cc1nn(C)c(C)c1N(C(F)F)S(=O)(=O)c1c(Cl)cc(CCCCC2CCN(C)CC2)cc1Cl` [Compound 8], the EC50 (U2OS cells; [7]) was 11900 nM, the “Toxicity on U2OS cells” value (U2OS cells) was “toxicity only at 50 μM” and the EC50 [1, 8] was 350 nM. For the same compound, the EC50 [2, 9] was 20 nM, the EC50 [3] was 2100 nM and the “Protein N-myristoylation bands (myristic acid azide labeling)” value (“Protein N-myristoylation bands” for short) (TcNMT [4]) was “decreased intensity or complete loss of most of the bands”. For the same compound, the “Incorporation of [35S]-methionine into proteins” value (“Incorporation” for short) [5] was “no effect” and the “TcNMT expression in Epi” value (TcNMT [6]) was “overexpression of TcNMT”.

With `Cc1c(NS(=O)(=O)c2ccc(CCCC3CCN(C)CC3)cc2)c(CC(C)C)nn1C` [Compound 4] the EC50 (U2OS cells; [7]) was over 50000 nM, the EC50 [1, 8] was 540 nM and the EC50 [2, 9] was over 50000 nM.

For `Cc1nn(C)c(C)c1NS(=O)(=O)c1c(Cl)cc(CCCN2CCN(C)CC2)cc1Cl` [Compound 3], the EC50 (U2OS cells; U2OS, 48 h) was over 50000 nM, the EC50 ([1]; Trypanosoma cruzi, U2OS, 48 h) was 10300 nM and the EC50 ([2]; Trypanosoma cruzi, 24 h) was over 50000 nM.

`Cc1nn(C)c(Cl)c1NS(=O)(=O)c1c(Cl)cc(-c2ccnc(N3CCNCC3)c2)cc1Cl` [Compound 2] gave an EC50 (U2OS cells; [7]) of over 50000 nM, an EC50 [1, 8] of 1140 nM and an EC50 ([1]; infected U2OS cells, 48 h at 37°C) of 1100 nM. For the same compound, the EC50 [2, 9] was over 50000 nM, the “Trypanocidal activity against purified ICA forms” value ([2]; purified ICA) was “no significant trypanocidal activity; also recorded: not trypanocidal” and the “Efficacy in mouse model of human African trypanosomiasis” value (T. brucei) was “curative”.

Work on `Cc1c(NS(=O)(=O)c2ccc(-c3cccc(CN(C)C)c3)cc2)c(CC(C)C)nn1C` [Compound 6] yielded an EC50 (U2OS cells; [7]) of over 50000 nM, an EC50 [1, 8] of 990 nM and an EC50 [2, 9] of over 50000 nM.

With `Cc1nn(C)c(C)c1N(C(F)F)S(=O)(=O)c1c(Cl)cc(CCCC2CCN(C)CC2)cc1Cl` [Compound 5] the EC50 (U2OS cells; [7]) was 11400 nM, the “Toxicity on U2OS cells” value (U2OS cells) was “toxicity only at 50 μM” and the EC50 [1, 8] was 260 nM. For the same compound, the EC50 [2, 9] was 60 nM, the EC50 [3] was 9700 nM and the “Protein N-myristoylation bands” value (TcNMT [4]) was “decreased intensity or complete loss of most of the bands”. For the same compound, the “Incorporation” value [5] was “no effect” and the “TcNMT expression in Epi” value (TcNMT [6]) was “overexpression of TcNMT”.

With `Cc1c(NS(=O)(=O)c2c(Cl)cc(-c3ccnc(N4CCNCC4)c3)cc2Cl)c(CC(C)C)nn1C` [Compound 1] the EC50 (U2OS cells; [7]) was 12800 nM, the “Toxicity on U2OS cells” value (U2OS cells) was “toxicity only at 50 μM” and the EC50 [1, 8] was 180 nM. For the same compound, the EC50 [2, 9] was 1830 nM, the EC50 ([2]; purified ICAs, 24 h at 37°C) was 1800 nM and the “Effect on Epi parasite viability” value [3] was “did not have a significant effect”. For the same compound, the “Protein N-myristoylation bands” value (TcNMT [4]) was “decreased intensity or complete loss of most of the bands”, the “Incorporation” value [5] was “no effect” and the “TcNMT expression in Epi” value (TcNMT [6]) was “overexpression of TcNMT”.

Compound `Cc1nn(C)c(C)c1N(CC(F)(F)F)S(=O)(=O)c1c(Cl)cc(CCCC2CCN(C)CC2)cc1Cl` [Compound 7] has an EC50 (U2OS cells; [7]) of 13900 nM, an EC50 [1, 8] of 1010 nM and an EC50 [2, 9] of 11100 nM.
